In patent US11352421B2, “Treatment for adverse immune reaction to metal implant debris” (RUSH UNIVERSITY MEDICAL CENTER, priority 2018, dated 2022):
*: point of attachment. Cbz = O=C(OCc1ccccc1)*; CH2F = FC*

Experiments:
[1] = test system: human peripheral blood mononuclear cells; test: Metal-LTT of human lymphocytes (PBMCs): proliferation by 3H-thymidine incorporation with inflammasome or IL-17A inhibitors; assay type: cell-based; details: for lymphocyte proliferation in response to Ni in the presence of inhibitor / lymphocyte proliferation to Ni combined with inhibitor compared to media control: metal-reactive individuals' lymphocytes, 6 days; for lymphocyte proliferation in response to Ni in the presence of inhibitor: compared with Ni challenge without inhibitor; for lymphocyte proliferation to Ni combined with inhibitor compared to media control: versus media challenge; for lymphocyte proliferation, mean response to Ni: Ni alone
Description: De-identified human peripheral blood mononuclear cells were isolated from 30 mL of peripheral blood using density gradient separation (Ficoll-isopaque, Pharmacia, Piscataway, N.J.). Ficoll gradient separated mononuclear cells are generally comprised of 85-95% lymphocytes with 5-13% monocytes and <0.1% dendritic cells with limited contamination (i.e., <5% erythrocytes and <3% granulocytes). Collected PBMCs (white buffy coat) were washed in sterile 1×PBS and resuspended in RPMI-1640 medium with 10% autologous serum and cultured with either no metal (plain media) as a negative control, PHA as a positive control, or with soluble nickel (NiCl2) or cobalt (CoCl2) at 37° C. and […] for 6 days. At day 5 of cell culture, ^3H-thymidine was added. At day 6, T-cell proliferation was assessed via ^3H-thymidine incorporation that was determined using a beta scintillation counter.
(§1) Isolated human PBMCs were co-incubated in vitro with either MCC950, a NLRP3 inflammasome inhibitor (InvivoGen), Caspase-1 inhibitor (Caspase-1/ICE inhibitor Z-WEHD-FMK) or recombinant human IL-1Ra (R&D Systems. Inc., Minneapolis, Minn.) for metal-LTT assay or cytokine analysis according to manufacturer's protocol and working concentration. Caicedo et al., J. Biomed. Mater. Res. A 93(4):1312-1321 (2010).
(§2) Isolated human PBMCs were co-incubated in vitro with IL-17A monoclonal antibody (eBio64CAP17; ThermoFisher Scientific) for neutralization of IL-17A bioactivity for metal-lymphocyte transformation test assay or cytokine analysis according to the manufacturer's protocol and concentration.

IFN-γ [2] = test: Sandwich ELISA for human IFN-γ in supernatants of metal-challenged PBMCs; assay type: cell-based; details: metal-reactive individuals' lymphocytes; supernatants harvested on day 6
Description: as §1, §2
(§3) Sandwich ELISAs for mouse IL-17A/F and IFN-γ (R&D Systems Inc., Minneapolis, Minn.) were used to detect cytokine production in both non-sensitized and metal-sensitized female mouse spleens and isolated CD4+ T-cells that were harvested 48 h post paw re-challenge to metal allergen (day 14). Supernatants from control and metal-challenged murine cells were collected after 4 days. […] All samples for ELISA were performed in triplicate in 96 well plates and were stored at −80° C. until analysis, following manufacturer's protocol.

IL-17A/F [3] = test: Sandwich ELISA for human IL-17A/F in supernatants of metal-challenged PBMCs; assay type: cell-based; details: metal-reactive individuals' lymphocytes; supernatants harvested on day 6
Description: as §1, §2, §3

[4] = test system: metal-sensitized C57BL/6 mice; test: In vivo delayed type hypersensitivity (DTH) to orthopedic implant metal(s): paw inflammation by digital caliber; details: day 14, no treatment, p<0.0001 vs vehicle group
Description: DTH responses comprise two phases: (1) sensitization and (2) effector phase. […] Ashrin et al., J. Immunol. 192(9):4025-4031 (2014); Sato et al., Clin. Exp. Allergy 37(5):743-751 (2007). […] (2) Effector phase to implant metal(s): Re-exposure to the metal allergen leads to DTH reaction during the effector phase. Therefore, on day 12, a 50 μL mixture of either sterile 1×PBS (control group) or NiCl2 (metal-sensitized group) with an equivalent volume of CFA was injected subcutaneously on top of the right paw. DTH was determined 48 h post re-exposure to metal allergen (day 14) by measuring changes in paw inflammation using a digital caliber (blinded assessment) and the induced difference was recorded. Each group consisted of 3-5 mice and experiments were performed at least three independent times.
Anti-mouse IL-1R1: A set of metal-sensitized C57BL/6 female mice received local paw administration on day 12 with 200 μg of anti-mouse IL-1R1 (for local in vivo blocking of IL-1R during the effector phase of metal-DTH responses) (clone JAMA-147; BioLegend, San Diego, Calif.) in concert with NiCl2 and CFA. Rogers et al., Proc. Natl. Acad. Sci. USA 89(3):1011-1015 (1992); Rogers et al., J. Immunol. 153(5):2093-2101 (1994). […]

IL-17A/F [5] = test: Sandwich ELISA for mouse IL-17A/F in supernatants of metal-challenged CD4+ T cells; assay type: cell-based; details: CD4+ T cells from metal-sensitized Caspase-1−/− mice
Description: (§4) In addition to determination of paw swelling after recall with NiCl2, proliferation in vitro of lymphocytes was measured. Spleens were obtained aseptically 48 h after challenge and splenic effector CD4+ T cells were isolated using negative selection kit following manufacturer's protocol (EasySep Mouse CD4+ T cell isolation kit; 2.5×10^5 cells/per well in 96 well flat bottom plates). Splenic CD4+ T cells were co-incubated with syngeneic mitomycin-C treated naïve splenic (2.5×10^5 cells/per well) antigen-presenting cells (APCs) with or without 0.0001 mM or 0.001 mM of soluble metal ions NiCl2 or CoCl2, and 0.01 mg/mL phytohemagglutinin (PHA) as a positive control, in RPMI 1640 media containing 10% fetal bovine serum (FBS; Hyclone Laboratories, Inc.) at 37° C. and […] for 4 days. Syngeneic naïve spleen APCs were incubated at 5×10^6 cells/mL with 25 μg/mL of mitomycin-C for 30 minutes to inactivate proliferation. At day 3 of cell culture, ^3H-thymidine was added. At day 4, T-cell proliferation was assessed via ^3H-thymidine incorporation that was determined using a beta scintillation counter.
(§5) Sandwich ELISAs for mouse IL-17A/F and IFN-γ (R&D Systems Inc., Minneapolis, Minn.) were used to detect cytokine production in both non-sensitized and metal-sensitized female mouse spleens and isolated CD4+ T-cells that were harvested 48 h post paw re-challenge to metal allergen (day 14). […]

IFN-γ [6] = test: Sandwich ELISA for mouse IFN-γ in supernatants of metal-challenged CD4+ T cells; assay type: cell-based; details: CD4+ T cells from metal-sensitized Caspase-1−/− mice
Description: as §4, §5

| Molecule | lymphocyte proliferation in response to Ni in the presence of inhibitor [1] | lymphocyte proliferation to Ni combined with inhibitor compared to media control [1] | IFN-γ production to metal challenge in the presence of inhibitor (IFN-γ [2]) | IL-17A/F production to metal challenge in the presence of inhibitor (IL-17A/F [3]) | mean paw inflammation upon challenge with Ni [4] [mm] | IL-17A/F mean secretion in response to Ni (IL-17A/F [5]) [pg/mL] | lymphocyte proliferation, mean response to Ni ([1]; other groups of individuals (FIGS. 9A, 9B, 10A)) | lymphocyte proliferation, mean response to Ni ([1]; subset of individuals tested with anti-IL-17A (n=11)) | IFN-γ mean secretion in response to Ni (IFN-γ [6]) [pg/mL] | relative effectiveness in mitigating lymphocyte metal reactivity (comparison among inhibitors) ([1]; comparison of MCC950, Caspase-1 inhibitor, IL-1Ra, anti-IL-17A) |
| --- | --- | --- | --- | --- | --- | --- | --- | --- | --- | --- |
| CC(C)(O)c1coc(S(=O)(=O)NC(=O)Nc2c3c(cc4c2CCC4)CCC3)c1 [MCC950, reference compound] | only a weak proliferative response | significant increases in cell proliferation | not affected | significantly suppressed | – | – | – | – | – | – |
| [Cl][Ni][Cl] [Ni, Nickel (II) chloride] | – | – | – | – | 6.195 | 131.5 | approximately 4,000 cpm | 10,600 cpm | 956.6 | – |
| Cbz-WEHD-CH2F [Caspase-1 inhibitor, reference compound] | significantly reduced lymphocyte reactivity | significant increases in cell proliferation | significantly suppressed both IL-17 and IFN-γ production | significantly suppressed | – | – | – | – | – | – |
| IL-1Ra: recombinant human IL-1Ra (R&D Systems), IL-1 receptor antagonist; b178 equates IL-1Ra with ANAKINRA | significantly reduced lymphocyte proliferative responses | non-significantly different compared to media challenge | – | significantly suppressed | – | – | – | – | – | most effective inflammasome based inhibitor |
